# Assays:
# tau oligomer (Tau-BiFC) = biological target: T1, tau oligomer (Tau-BiFC) (Homo sapiens, UniProt P10636, P618L); test: Tau-BiFC fluorescent imaging of brain tissues (tau oligomer formation); assay type: in vivo, mouse
# T1 construct: VN173 (BiFC fragment); VC155 (BiFC fragment); expressed in transfected cells; host or cells: brain of transgenic TauP301L-BiFC mice (transgene-expressed)
# Source text: (§1) • 1) Experimental method for brain tissue sampling • (1) On day 1, after completing 63 times administration schedule, the mice of TauP301L-BiFC mouse model were anesthetized, followed by preparing heart laparotomy. • (2) Saline was introduced into the heart of each mouse in the TauP301L-BiFC mouse model, followed by removing vivo blood using a perfusion pump machine. • (3) The brain of the mouse was extracted and weighed. • (4) The brain to be used for tissue staining experiment was immersed in 4% FPA solution and fixed for 24 hours. • (5) On day 2, after completing fixation, the brain tissues were immersed in 20% sucrose solution to remove water for 24 hours. • (6) On day 3, the brain tissues were immersed in 30% sucrose solution to remove water for 48 hours. • (7) On day 5, the brain tissues free of water were taken and extra moisture was removed. Then, the brain tissues and a frozen tissue embedding agent (OCT compound) were placed in a prepared mold, followed by freezing the brain tissues as fast as possible while protecting the tissues. The frozen brain tissue-containing mold was stored in a defreezer at -80°C. Thereafter, using a cryostat for frozen fragment, the tissues were cut into a unit thickness of 30 µm and stored in 0.05% sodium azide solution.
# • (1) On day 1, a brain tissue sample having a thickness of 30 µm under cryosection was selected for each brain region, immersed in PBS solution, and then washed three times. • (2) A solution of 0.05% Sudan Black B in 70% EtOH was stirred overnight (O/N), and then, particles were filtered through 0.22 µm filter. • (3) The selected brain tissue sample was immersed in distilled water (D.W.), and washed three times for 5 minutes. • (4) The brain tissues were immersed in a prepared 0.05% Sudan Black B solution, followed by staining for 10 minutes. • (5) The brain tissues stained in Sudan black B were immersed in 0.1% PBS-T solution, and washed at an interval of 30 seconds to control a degree of staining. • (6) The tissues were washed in D.W. three times for 5 minutes. • (7) In Hoechst solution at a concentration of 0.2 µg/mL in distilled water, the brain tissues were immersed to conduct nuclei staining for 20 minutes. • (8) The tissues were washed in D.W. three times for 5 minutes. • (9) Tau-BiFC imaging was performed using a slide scanner.
# (§2) • (1) In order to obtain fluorescent images of the stained brain tissues, a brain tissue slide was scanned using Zeiss Axio Scan (Zeiss, Oberkochen, Germany). • BiFC fluorescence: λex=460-490 nm, λem=500-550 nm • AT8 fluorescence: λex=620-640 nm, λem=650-700 nm • Hoechst fluorescence: λex=330-375 nm, λem=430-470 nm • (3) For brain tissues per site obtained through imaging, fluorescent value was calculated through Image J software (NIH).
# [1] = test system: AT8 (phospho-Tau S202/T205); test: AT8 immunofluorescent staining of brain tissues (tau hyperphosphorylation); assay type: in vivo, mouse
# Source text: as §1
# • (1) On day 1, a brain tissue sample having a thickness of 30 µm under cryosection was selected for each brain region, immersed in PBS solution, and then washed three times for 10 minutes. • (3) The sample was fixed in 3.7% formaldehyde for 5 minutes. • (4) The sample was washed in PBS solution three times for 10 minutes. • (5) The brain tissue sample was subjected to permeabilization in 0.3% PBS-T solution. • (6) The sample was immersed in 5% BSA in PBS solution for 1 hour for blocking. • (7) The brain tissues were input into 3% BSA in which primary antibody (AT8) was diluted at a ratio of 1:200, 0.1% Tween-20 in PBS solution, followed by overnight (O/N) binding. • (8) On day 2, the brain tissues were immersed in PBS solution, and washed three times for 10 minutes. • (9) The brain tissues were input into 3% BSA in which secondary antibody was diluted at a ratio of 1:500, 0.1% Tween-20 in PBS solution, followed by binding at room temperature for 1 hour. • (10) The brain tissues were immersed in PBS solution, and washed once for 10 minutes. • (11) The brain tissues were immersed in Hoechst (stock conc., 1mg/mL) diluted at a ratio of 1:2000 in PBS solution, followed by nuclei staining. • (12) The brain tissues were immersed in PBS solution, and washed three times for 10 minutes. • (13) Brain tissue fluorescent imaging was performed using a slide scanner.
# as §2
# tau aggregation = tau aggregation (Homo sapiens, UniProt P10636); settings: reported in Kim et al., Exp. Mol. Med. 55, 612-627 (2023); read-out: EC50 (tau aggregation inhibitory section); cited from earlier work
# [2] = patients with mild or moderate Alzheimer's disease; most general cause for stopping high-dose LMTM; cited from earlier work
# [3] = LMTM 15 mg/kg oral vs. vehicle, decrease (in parentheses)
# [4] = LMTM 15 mg/kg oral vs. vehicle, decrease (in parentheses), *p<0.05
# T1 sequence (P10636 1-441 isoform P10636-8 P301L): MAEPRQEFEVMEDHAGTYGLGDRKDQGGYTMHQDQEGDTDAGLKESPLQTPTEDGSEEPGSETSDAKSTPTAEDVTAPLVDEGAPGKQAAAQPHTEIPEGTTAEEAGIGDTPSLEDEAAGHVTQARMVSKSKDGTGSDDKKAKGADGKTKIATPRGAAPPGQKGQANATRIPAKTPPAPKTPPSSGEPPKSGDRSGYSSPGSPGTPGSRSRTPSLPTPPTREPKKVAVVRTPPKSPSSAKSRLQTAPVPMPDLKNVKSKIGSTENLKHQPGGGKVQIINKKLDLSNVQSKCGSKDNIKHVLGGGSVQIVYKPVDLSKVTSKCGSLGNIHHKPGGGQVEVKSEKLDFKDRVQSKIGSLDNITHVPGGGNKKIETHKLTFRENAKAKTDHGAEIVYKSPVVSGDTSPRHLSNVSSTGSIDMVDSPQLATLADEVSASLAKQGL
# T1 sequence (P10636 1-441 isoform P10636-8 P301L): as above
# tau aggregation, sequence (P10636 whole entry): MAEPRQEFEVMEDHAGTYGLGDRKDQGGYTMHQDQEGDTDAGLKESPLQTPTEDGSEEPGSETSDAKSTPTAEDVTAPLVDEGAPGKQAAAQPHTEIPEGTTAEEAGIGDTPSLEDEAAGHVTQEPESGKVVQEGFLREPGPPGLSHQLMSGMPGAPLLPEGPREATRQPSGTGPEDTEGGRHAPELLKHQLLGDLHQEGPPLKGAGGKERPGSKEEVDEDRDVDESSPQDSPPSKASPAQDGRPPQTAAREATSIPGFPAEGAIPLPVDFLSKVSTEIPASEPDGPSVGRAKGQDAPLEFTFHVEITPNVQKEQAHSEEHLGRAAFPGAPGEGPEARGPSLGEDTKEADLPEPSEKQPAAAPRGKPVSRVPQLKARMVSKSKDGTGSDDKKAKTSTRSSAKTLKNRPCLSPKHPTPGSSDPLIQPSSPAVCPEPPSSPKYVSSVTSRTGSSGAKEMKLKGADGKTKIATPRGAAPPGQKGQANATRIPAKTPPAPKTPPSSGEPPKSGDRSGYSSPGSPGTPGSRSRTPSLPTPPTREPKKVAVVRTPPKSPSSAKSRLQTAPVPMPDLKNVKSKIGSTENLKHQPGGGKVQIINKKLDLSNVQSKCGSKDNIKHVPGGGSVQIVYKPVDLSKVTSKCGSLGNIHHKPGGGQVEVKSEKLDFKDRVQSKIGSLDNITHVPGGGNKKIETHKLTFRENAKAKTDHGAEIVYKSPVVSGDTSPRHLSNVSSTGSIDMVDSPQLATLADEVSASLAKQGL
smiles,measurement,setting,value
CN(C)c1ccc2c(c1)Sc1cc(N(C)C)ccc1N2.CS(=O)(=O)O.CS(=O)(=O)O [LMTM],"TauBiFC fluorescent level, Somatosensory cortex",tau oligomer (Tau-BiFC); [3],(15 %)
same,"TauBiFC fluorescent level, Substantia nigra",tau oligomer (Tau-BiFC); [3],(26 %)
same,"TauBiFC fluorescent level, Hippocampus",tau oligomer (Tau-BiFC); [4],(21 %)*
same,"TauBiFC fluorescent level, Motor cortex",tau oligomer (Tau-BiFC); [4],(27 %)*
same,"Tau-BiFC fluorescent level as compared to the vehicle group, in words",tau oligomer (Tau-BiFC); LMTM 15 mpk,"significantly reduced in the motor cortex, hippocampus and substantia nigra regions"
same,"AT8 fluorescent level, Somatosensory cortex",[1]; [3],(31 %)
same,"AT8 fluorescent level, Substantia nigra",[1]; [3],(16 %)
same,"AT8 fluorescent level, Hippocampus",[1]; [4],(28 %)*
same,"AT8 fluorescent level, Motor cortex",[1]; [4],(26 %)*
same,"AT8 fluorescent level as compared to the vehicle group, in words",[1]; LMTM 15 mpk,"significantly reduced in the somatosensory cortex, motor cortex and hippocampus regions"
same,EC50,tau aggregation,2200 ± 200 nM
same,most common side effects,[2],most common side effects related to gastrointestinal and urinary system

# From patent EP4595972A1, “PEPTIDE FOR TREATING OR PREVENTING 4R TAUOPATHY” (GemVax & KAEL Co., Ltd., priority 2022, dated 2024)
